“Also recorded” adds a separate entry of the source. Where a name gives a salt, the structure may show the parent alone.
How the values were obtained:
calcineurin = experiment: Calcineurin phosphatase activity in cerebellar granule neurons after 4 DIV (malachite green colorimetric assay, Test A); assay type: cell-based, Wistar rat; settings: for effect on calcineurin phosphatase activity: CGNs in K25 medium, 10, 100 or 1000 nM for 4 DIV, relative to K25 control (100%); for change of calcineurin inhibition with increasing concentration: CGNs, 4 DIV, 10-1000 nM
Protocol: According to Test A, phosphatase calcineurin activity is assessed in cerebellar granule neurons (CGNs) using a colorimetric assay kit based on quantification of the green complex formed between malachite green, molybdate and free phosphate released. CGNs are detached from plates, for example by scraping, rinsed in ice-cold tris buffer solution (TBS) and counted. About 10 million cells are lysed in 1 ml of the provided lysis buffer and centrifuged at 150,000×g at 4° C. for 45 min, and the supernatant may be stored at −70° C. until analysis. Prior to calcineurin activity assay, free phosphate and nucleotides are removed from cellular extract by gel filtration. To ensure the complete removal of phosphate, malachite green reagent may be added, which will turn the color green in presence of phosphate. A specific calcineurin substrate is added to phosphate-free cellular extracts and after appropriate incubation period, malachite green reagent is applied. The rapid green color formation from the reaction is measured, for example on a spectrophotometer. The developed color is proportional to the calcineurin phosphatase activity of samples. Absorbance values, read at 620 nm, may thus be transformed to percentage calcineurin activity relative to K25 control treatment (100%). Cerebellar granule cells were dissociated from the cerebellae of 7-day-old Wistar rat pups as described (Kramer et al. 2003, Mol Cell Neurosci 23:325-330). Briefly, the cerebellae were removed, rinsed in HBSS-BSA, minced, digested with 0.025% trypsin and incubated at 37° C. for 15 min. To stop the digestion, DMEM containing 10% fetal calf serum was added; then a single cell suspension was obtained through pipetting up and down the sedimented tissue. Following centrifugation, cells were counted using trypan blue exclusion test in a Burker chamber. This method is based on the ability of viable cells to exclude trypan blue due to their intact cell membranes, leaving them unstained while nonviable cells take up the dye. Cells at 3.2×10^5/cm^2 were seeded in DMEM Hepes modification supplemented with 10% fetal calf serum, 100 μg/ml pyruvate, and 100 μg/ml gentamicin on Polystyrene 12-well tissue culture plates (CELLSTAR) coated with poly-L-lysine. After 24 h, 10 μM cytosine arabinofuranoside was added to inhibit the growth of non-neuronal cells. All pharmacological interventions begun at this time in the culture medium containing 25 mM KCl (K25), which caused depolarization of granule cells and consequently activated gene expression machinery. Moreover, the viability of granule neurons was higher in this milieu and therefore provides the possibility to maintain cells for several days. Indeed, 25 mM KCl is required in the medium for CGN cultures to maintain adequate calcineurin activity and cell maturation and depolarization (Kramer et al., 2003, Mol Cell Neurosci 23:325-330; Vallano et al. 2006, Neuropharmacology 50: 651-660). Cultures received simple medium (K25 control) or medium containing a setron compound in HCl salt form (Tocris Bioscience, Bristol, UK) at concentrations of 10 nM, 100 nM or 1000 nM for 4 days in vitro (DIV). Phosphatase calcineurin activity was assessed in CGNs using a colorimetric assay kit based on quantification of the green complex formed between malachite green, molybdate and free phosphate released. CGNs were detached from plates by scraping, rinsed in ice-cold tris buffer solution (TBS) and counted. About 10 million cells are lysed in 1 ml of the provided lysis buffer and centrifuged at 150,000×g at 4° C. for 45 min, and the supernatant was stored at −70° C. until analysis. Prior to calcineurin activity assay, free phosphate and nucleotides were removed from cellular extract by gel filtration. To ensure the complete removal of phosphate, malachite green reagent was added, which will turn the color green in presence of phosphate. […]

[1] = system: acoustic trauma induced hearing loss; experiment: Auditory brainstem response (ABR) thresholds after acoustic trauma; assay type: in vivo, Wistar rats; settings: for ABR threshold recovery from 24 h to day 14 compared to placebo / hearing outcomes (ABR thresholds and DPOAE amplitudes) at 14 days after acoustic trauma compared to placebo: i.p. daily for 14 days after acoustic trauma, same doses as E4; for ABR threshold shift from baseline to day 14 compared to placebo: i.p. daily for 14 days from immediately after 121 dB trauma, azasetron HCl 4.22, ondansetron HCl 4, tropisetron HCl 3.5, granisetron HCl 3.8, Tacrolimus 1.5 mg/kg
Protocol: (§1) All experiments were performed using 7 week old male Wistar rats (CERJ, Le Genest, France) in accordance with the French Ministry of Agriculture regulations and European Community Council Directive no. 86/609/EEC, OJL 358. The rats were fed a standard diet ad libitum and maintained on a 12 h light-dark cycle.
(§2) Auditory Brainstem Reponses (ABR) and Distortion Product Otoacoustic Emissions (DPOAE) were recording using a RZ6 Auditory Workstation (Tucker-Davis Technologies, Alachua, FL, USA) with animals deeply anesthetized using 90 mg/kg ketamine and 10 mg/kg xylazine and placed on a 35° C. recirculating heating pad inside a sound attenuating cubicle (Med Associates Inc., St. Albans, VT, USA) throughout the experiment.
For ABR recordings, three stainless steel needle electrodes were placed subdermally over the vertex, the right mastoid and right hind leg of each animal. Tone-pips (5 msec duration presented at a rate of 21/s) at 8, 16 and 24 kHz were delivered to the right ear using a calibrated MF-1 speaker in closed-field configuration (Tucker-Davis Technologies, Alachua, FL, USA) at attenuating intensity until no reproducible response could be recorded. Close to the ABR threshold, the responses to 1000 acoustic stimuli in 5 dB steps were averaged. Responses were low-pass filtered at 3 kHz.
(§3) Animals were exposed to 121 dB octave band noise (8-16 kHz) for 2 h in groups of 4 rats, placed in individual compartments of a custom built circular cage placed on a 30 cm diameter platform rotating at 3 turns/minute (Aqila Innovation, Valbonne, France). The calibrated octave band noise generated by the RZ6 SigGen software was further amplified by a Crown D-75 amplifier in bridge mode (Crown Audio, Elkhart, IN, USA) and delivered by four Beyma CP16 compression tweeters (Acustica Beyma S. L., Moncada, Valencia, Spain) positioned 39 cm above the rotating platform, each 10 cm from the platform center.
(§4) Animals were treated by intraperitoneal injection daily for 14 days beginning immediately after acoustic trauma induction and subsequently repeated every 24 hours. The setron compounds granisetron HCl, ondansetron HCl, tropisetron HCl and azasetron HCl (Tocris Bioscience, Bristol, UK) were delivered dissolved in saline solution (1.6 mL/kg) while Tacrolimus (Selleck Chemicals, Houston, TX, USA) was dissolved in solution composed of 10% ethanol-100%/10% Kolliphor EL/1% Tween 80/79% saline (1.0 mL/kg). Placebo treated animals received injections of 1.6 mL/kg saline following the same treatment schedule.
(§5) Statistical analysis was performed using two-way ANOVA (Audiometry data: frequency and treatment group. Cochleograms: normalized distance from apex and treatment group) followed by Holm-Sidak post-hoc test for multiple comparisons. Results are given as mean±SEM and a p value less than or equal to 0.05 considered significant.
(§6) Baseline line audiometry (ABR and DPOAE measures) was performed for each animal 3 days before acoustic trauma was induced. Subsequently, audiometry measures were repeated 24 h and 14 days after acoustic trauma.
(§7) To quantify and compare the difference in treatment effects between groups while taking into account individual baseline and trauma variability, the hearing loss (ABR threshold shift & DPOAE amplitude loss) at D14 relative to baseline, as well as the functional recovery of hearing from 24 h to D14 (ABR threshold shift & DPOAE amplitude loss) were determined for all treatment groups.

[2] = system: acoustic trauma induced hearing loss; experiment: Distortion product otoacoustic emissions (DPOAE) amplitudes after acoustic trauma; assay type: in vivo, Wistar rats; settings: for DPOAE amplitude loss from baseline to day 14 compared to placebo / recovery of DPOAE amplitudes from 24 h post trauma to day 14 compared to placebo: i.p. daily for 14 days after acoustic trauma, same doses as E4
Protocol: as §1, §2
DPOAEs were recorded and using ER10B+ Low Noise DPOAE microphone (Etymotic Research, Inc., Elk Grove Village, IL, USA) with acoustic stimuli delivered by two calibrated MF-1 speakers in closed-field configuration (Tucker-Davis Technologies, Alachua, FL, USA). DPOAEs were recorded at fixed stimulus levels (L1=L2=70 dB SPL), with an f2/f1 ratio of 1.2. Responses were recorded at 4, 8, 16, 24 and 32 kHz.
as §3, §4, §5, §6, §7

outer hair cells = experiment: Outer hair cell loss (cytocochleograms) in cochleae fixed at D14 after acoustic trauma; assay type: in vivo, Wistar rats; settings: cochleae fixed after audiometry on day 14
Protocol: as §3, §4
After audiometry on day 14, animals were deeply anaesthetized with an intraperitoneal injection of pentobarbital (100 mg/kg). The cochleae were removed, fixed with 4% paraformaldehyde, pH 7.4, decalcified with 10% EDTA, pH 7.4 and then stained with myosin VIIa 1/1000. […] The mean loss of OHCs per group was subsequently calculated as a function of normalized distance from the apex in bins of 2.5% of the total length, using the total length of each histological specimen. Cell counts could reliably be obtained for up to 90% of the total distance from the apex (corresponding to the tonotopic region up to from 0 kHz to ~50 kHz in rat, Viberg & Canlon 2004), while the last 10% was too variable due to damage incurred during dissection.
as §5
To further support the conclusions from the functional audiometry data, the loss of outer hair cells in four treatment group was determined by constructing cytocochleograms from histological preparations of cochleae fixed after audiometry on day 14.

[3] = Animal deaths during 14-day repeated treatment in the acoustic trauma study; assay type: in vivo, Wistar rats; settings: Tacrolimus 1.5 mg/kg i.p. daily for 14 days
Protocol: as §1, §4, §6
FIGS. 2 & 3 illustrate the audiometry measures (ABR thresholds and DPOAE amplitudes) determined for all treatment groups at baseline, 24 h and 14 days after acoustic trauma. For ABR thresholds exceeding 90 dB, a maximal value of 95 dB was attributed. […]

[4] = system: noise-induced hearing loss; settings: Uemaetomari et al. 2005; Bas et al. 2009; cited from earlier work
[5] = day 14, i.p. daily for 14 days after acoustic trauma

Row | Compound | effect on calcineurin phosphatase activity (calcineurin) | ABR threshold recovery from 24 h to day 14 compared to placebo [1] | hearing outcomes (ABR thresholds and DPOAE amplitudes) at 14 days after acoustic trauma compared to placebo [1] | ABR threshold shift from baseline to day 14 compared to placebo [1] | DPOAE amplitude loss from baseline to day 14 compared to placebo [2] | recovery of DPOAE amplitudes from 24 h post trauma to day 14 compared to placebo [2] | DPOAE amplitude loss from baseline to day 14 compared to placebo ([2]; listed as granisetron) | mean loss of outer hair cells compared to placebo (outer hair cells) | mean loss of outer hair cells compared to placebo (outer hair cells; listed as granisetron) | change of calcineurin inhibition with increasing concentration (calcineurin) | reduction of ABR threshold shifts compared to placebo treatment [1, 5] | reduction of DPOAE amplitudes loss compared to placebo treatment [2, 5] | animals that died between treatment initiation and end of the study [3] | effect on hearing loss in pre-clinical models of noise-induced hearing loss [4] | DPOAE amplitude loss from baseline to day 14 compared to placebo ([2]; listed as tropisetron)
1 | CN1C2CCCC1CC(NC(=O)c1nn(C)c3ccccc13)C2 (stereo not drawn) [granisetron HCl] | no effect | decreased threshold recovery | worse ABR thresholds and DPOAE amplitudes | strong trends towards higher ABR threshold shifts | trend towards increased DPOAE amplitude loss | reduced recovery | trend towards worse DPOAE amplitudes | Neither the granisetron HCl nor the tacrolimus treated groups were significantly different from placebo | trend towards worse |  |  |  |  |  | 
2 | Cc1nccn1CC1CCc2c(c3ccccc3n2C)C1=O (stereo not drawn) [ondansetron HCl] | significantly inhibited |  | improvement at some frequencies | lower ABR threshold shift | trend towards reduced loss of DPOAE amplitude | improved recovery |  |  |  | decreased with increasing concentration | 10-30% | 10-30% |  |  | 
3 | C=CC[C@@H]1/C=C(\C)C[C@H](C)C[C@H](OC)[C@H]2O[C@@](O)(C(=O)C(=O)N3CCCC[C@H]3C(=O)O[C@H](/C(C)=C/[C@@H]3CC[C@@H](O)[C@H](OC)C3)[C@H](C)[C@@H](O)CC1=O)[C@H](C)C[C@@H]2OC [tacrolimus] |  |  | improvement at some frequencies | no major effect | trend towards reduced loss of DPOAE amplitude; also recorded: trends towards improving DPOAE amplitude loss at some frequencies | improved recovery |  | Neither the granisetron HCl nor the tacrolimus treated groups were significantly different from placebo |  |  |  |  | 5 animals out of 11 | reduce hearing loss | 
4 | cyclosporine A |  |  |  |  |  |  |  |  |  |  |  |  |  | reduce hearing loss | 

Second part, led by results:

Row | effect on calcineurin phosphatase activity (calcineurin) | Compound | ABR threshold recovery from 24 h to day 14 compared to placebo [1] | hearing outcomes (ABR thresholds and DPOAE amplitudes) at 14 days after acoustic trauma compared to placebo [1] | ABR threshold shift from baseline to day 14 compared to placebo [1] | DPOAE amplitude loss from baseline to day 14 compared to placebo [2] | recovery of DPOAE amplitudes from 24 h post trauma to day 14 compared to placebo [2] | DPOAE amplitude loss from baseline to day 14 compared to placebo ([2]; listed as granisetron) | mean loss of outer hair cells compared to placebo (outer hair cells) | mean loss of outer hair cells compared to placebo (outer hair cells; listed as granisetron) | change of calcineurin inhibition with increasing concentration (calcineurin) | reduction of ABR threshold shifts compared to placebo treatment [1, 5] | reduction of DPOAE amplitudes loss compared to placebo treatment [2, 5] | animals that died between treatment initiation and end of the study [3] | effect on hearing loss in pre-clinical models of noise-induced hearing loss [4] | DPOAE amplitude loss from baseline to day 14 compared to placebo ([2]; listed as tropisetron)
5 | significantly inhibited | Cn1cc(C(=O)[C@@H]2CCc3nc[nH]c3C2)c2ccccc21 [ramosetron HCl] |  |  |  |  |  |  |  |  | increased to different degree with increasing concentrations |  |  |  |  | 
6 | significantly inhibited | CN1[C@@H]2CC[C@H]1C[C@@H](OC(=O)c1c[nH]c3ccccc13)C2 [tropisetron HCl] | decreased threshold recovery | worse ABR thresholds and DPOAE amplitudes | strong trends towards higher ABR threshold shifts | trend towards increased DPOAE amplitude loss | reduced recovery |  | trend towards worse |  | increased to different degree with increasing concentrations |  |  |  |  | trend towards worse DPOAE amplitudes

From patent US12702671B2, “Calcineurin inhibitors of the setron family for the treatment of hearing loss” (SENSORION, priority 2015, dated 2026)
